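Compound exposure: 48 hours, 5 concentrations, 96-well plates. Abbreviation: GI50, concentration required for 50% inhibition of growth.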 The source made the active and inactive calls. Rule as the data show it: active = GI50 up to about 1.1 µM and inactive = higher.
Assays:
Experiment in all cases: inhibition of tumour cell growth, NCI panel, 48 h
[1] = test system: 786-0
[2] = test system: CAKI-1
[3] = test system: DU-145
[4] = test system: EKVX
[5] = test system: HCC 2998
[6] = test system: HOP-62
[7] = test system: Hs-578T
[8] = test system: IGROV-1
[9] = test system: K562
[10] = test system: MCF7
[11] = test system: MDA-N
[12] = test system: MOLT-4
[13] = test system: NCI-H226
[14] = test system: NCI-H23
[15] = test system: RPMI-8226
[16] = test system: RXF 393
[17] = test system: SF-295
[18] = test system: SK-MEL-2
[19] = test system: SN12C
[20] = test system: UO-31

| SMILES | GI50 [1] | GI50 [2] | GI50 [3] | GI50 [4] | GI50 [5] | GI50 [6] | GI50 [7] | GI50 [8] | GI50 [9] | GI50 [10] | GI50 [11] | GI50 [12] | GI50 [13] | GI50 [14] | GI50 [15] | GI50 [16] | GI50 [17] | GI50 [18] | GI50 [19] | GI50 [20] |
| --- | --- | --- | --- | --- | --- | --- | --- | --- | --- | --- | --- | --- | --- | --- | --- | --- | --- | --- | --- | --- |
| O=C(OCc1ccccc1)N(CCCCN(CCCNCc1ccccc1)C(=O)OCc1ccccc1)CCCNCc1ccccc1 | 0.289 µM (active) | 1.42 µM (inactive) | 1.27 µM (inactive) | 1.49 µM (inactive) | 0.462 µM (active) | 1.6 µM (inactive) | 1.31 µM (inactive) | 0.883 µM (active) | 0.208 µM (active) | 7.76 µM (inactive) | 0.288 µM (active) | 0.194 µM (active) | 1.05 µM (active) | 1.77 µM (inactive) | 0.24 µM (active) | 1.63 µM (inactive) | 12.2 µM (inactive) | 1.36 µM (inactive) | 0.834 µM (active) | 1.38 µM (inactive) |
| Cc1c(C(=O)O)n2c(S)nnc2c2ccccc12 | > 100 µM (inactive) | > 100 µM (inactive) | > 100 µM (inactive) | > 100 µM (inactive) | > 100 µM (inactive) | > 100 µM (inactive) | > 100 µM (inactive) | > 100 µM (inactive) | > 100 µM (inactive) | > 100 µM (inactive) | > 100 µM (inactive) | > 100 µM (inactive) | > 100 µM (inactive) | > 100 µM (inactive) | > 100 µM (inactive) | > 100 µM (inactive) | > 100 µM (inactive) | > 100 µM (inactive) | > 100 µM (inactive) | > 100 µM (inactive) |
| Cn1c2ccccc2n2c3nc4ccccc4nc3c(C#N)c12 | 93.8 µM (inactive) | > 100 µM (inactive) | > 100 µM (inactive) | > 100 µM (inactive) | 9.68 µM (inactive) | 10 µM (inactive) | 56 µM (inactive) | > 100 µM (inactive) | 65.3 µM (inactive) | > 75 µM (inactive) | > 100 µM (inactive) | 57.8 µM (inactive) | > 100 µM (inactive) | > 96.8 µM (inactive) | 71 µM (inactive) | > 42.3 µM (inactive) | 88.3 µM (inactive) | > 4.65 µM (inactive) | > 94.2 µM (inactive) | 77.3 µM (inactive) |
| CCOC(=O)/C(=C\Nc1c(C)n(C)n(-c2ccccc2)c1=O)C(=O)c1ccccc1 | > 100 µM (inactive) | > 100 µM (inactive) | > 100 µM (inactive) | > 100 µM (inactive) | > 100 µM (inactive) | > 100 µM (inactive) | > 100 µM (inactive) | > 100 µM (inactive) | > 100 µM (inactive) | > 100 µM (inactive) | > 100 µM (inactive) | > 100 µM (inactive) | > 100 µM (inactive) | > 100 µM (inactive) | > 100 µM (inactive) | > 100 µM (inactive) | > 100 µM (inactive) | > 100 µM (inactive) | > 100 µM (inactive) | > 100 µM (inactive) |
| COc1ccc2c(c1)c1nn(CCN3CCCCC3)c3ccc4c(=O)n(CCN(C)C)c(=O)n2c4c13 | < 0.01 µM (active) | 0.0219 µM (active) | < 0.01 µM (active) | < 0.0142 µM (active) | < 0.01 µM (active) | < 0.01 µM (active) | < 0.0325 µM (active) | < 0.01 µM (active) | < 0.01 µM (active) | < 0.01 µM (active) | < 0.0109 µM (active) | < 0.01 µM (active) | 0.0231 µM (active) | < 0.022 µM (active) | < 0.01 µM (active) | < 0.0164 µM (active) | < 0.01 µM (active) | 0.04 µM (active) | < 0.01 µM (active) | < 0.0116 µM (active) |
| CC(C)=CC(O)C/C(C)=C/CC/C(C)=C/CCC1(C)C(CCCO)/C(=C(/C)C=O)CCC1(C)O (stereo not given) | 35.7 µM (inactive) | 41.9 µM (inactive) | 57 µM (inactive) | 27.5 µM (inactive) | 26.4 µM (inactive) | 25.9 µM (inactive) | 35.6 µM (inactive) | 24.8 µM (inactive) | 2.99 µM (inactive) | 37.4 µM (inactive) | 22.1 µM (inactive) | 24.7 µM (inactive) | 74.3 µM (inactive) | 20 µM (inactive) | 21.3 µM (inactive) | 25.7 µM (inactive) | 28.8 µM (inactive) | 59.3 µM (inactive) | 31.9 µM (inactive) | 33.7 µM (inactive) |
| CN(CCCNC(=O)c1cc(-c2ccccc2)nc2ccccc12)CCCNC(=O)c1cc(-c2ccccc2)nc2ccccc12 | 1.7 µM (inactive) | 9.16 µM (inactive) | 3.58 µM (inactive) | 6.1 µM (inactive) | 1.93 µM (inactive) | 1.82 µM (inactive) | 4.17 µM (inactive) | 4.41 µM (inactive) | 1.99 µM (inactive) | 1.48 µM (inactive) | 1.8 µM (inactive) | 2.45 µM (inactive) | 3.81 µM (inactive) | 6.35 µM (inactive) | 2.8 µM (inactive) | 4.62 µM (inactive) | 1.77 µM (inactive) | 1.96 µM (inactive) | 5.85 µM (inactive) | 2.31 µM (inactive) |
| COc1cc(/C=C/C(=O)CC(=O)/C=C/c2cc(OC)c(O)c(OC)c2)cc(OC)c1O | 5.82 µM (inactive) | 9.04 µM (inactive) | 7.83 µM (inactive) | 12.6 µM (inactive) | 5.37 µM (inactive) | 11.7 µM (inactive) | 7.93 µM (inactive) | 5.35 µM (inactive) | 8.69 µM (inactive) | 14.9 µM (inactive) | 4.74 µM (inactive) | 6.84 µM (inactive) | 10.2 µM (inactive) | 10.3 µM (inactive) | 9.86 µM (inactive) | 3.33 µM (inactive) | 9.91 µM (inactive) | 7.57 µM (inactive) | 6.68 µM (inactive) | > 25 µM (inactive) |
| CC1(c2ccc(Cl)cc2)CC(c2ccc(Cl)cc2)=C(C#N)C(=C(C#N)C#N)N1 (stereo not given) | 11.1 µM (inactive) | 16.8 µM (inactive) | 14.9 µM (inactive) | 17.9 µM (inactive) | 13.2 µM (inactive) | 7.36 µM (inactive) | 19.9 µM (inactive) | 14.7 µM (inactive) | 13.8 µM (inactive) | 18.9 µM (inactive) | 19 µM (inactive) | 6.81 µM (inactive) | 18.5 µM (inactive) | 17.3 µM (inactive) | 8.77 µM (inactive) | 13.1 µM (inactive) | 14.7 µM (inactive) | 22.9 µM (inactive) | 15 µM (inactive) | 16.3 µM (inactive) |
| COC1/C=C\C=C(/C)C(=O)NC2=CC(=O)C(N)=C(CC(C)CC(OC)C(O)C(C)C=C(C)C1OC(N)=O)C2=O (stereo not given) | 0.368 µM (active) | 0.977 µM (active) | < 0.0199 µM (active) | 3.97 µM (inactive) | 0.0268 µM (active) | < 0.0199 µM (active) | < 0.01 µM (active) | 0.0318 µM (active) | 0.0204 µM (active) | 0.0416 µM (active) | < 0.0171 µM (active) | 0.15 µM (active) | 5.87 µM (inactive) | < 0.0212 µM (active) | 0.195 µM (active) | 2.93 µM (inactive) | 0.0295 µM (active) | < 0.01 µM (active) | 0.017 µM (active) | 0.184 µM (active) |
